Patent publication US8455534B2, “Estrogen receptor modulators and uses thereof” (Aragon Pharmaceuticals, Inc., priority 2010, dated 2013)

Tests used:
ER-α = biological target: T1, ER-α (Homo sapiens, UniProt P03372); assay: Breast Cancer Cell ER-α In Cell Western Assay (SP1); format: cell-based; conditions: MCF-7 cells, SP1 antibody, 4 or 24 hr post compound addition; for Emax: MCF7, read-out: ER-α In Cell Western Assay (SP1) Max Response; for DC50: read-out: ER-α In Cell Western Assay (SP1) IC50
T1 sequence (P03372 1-595): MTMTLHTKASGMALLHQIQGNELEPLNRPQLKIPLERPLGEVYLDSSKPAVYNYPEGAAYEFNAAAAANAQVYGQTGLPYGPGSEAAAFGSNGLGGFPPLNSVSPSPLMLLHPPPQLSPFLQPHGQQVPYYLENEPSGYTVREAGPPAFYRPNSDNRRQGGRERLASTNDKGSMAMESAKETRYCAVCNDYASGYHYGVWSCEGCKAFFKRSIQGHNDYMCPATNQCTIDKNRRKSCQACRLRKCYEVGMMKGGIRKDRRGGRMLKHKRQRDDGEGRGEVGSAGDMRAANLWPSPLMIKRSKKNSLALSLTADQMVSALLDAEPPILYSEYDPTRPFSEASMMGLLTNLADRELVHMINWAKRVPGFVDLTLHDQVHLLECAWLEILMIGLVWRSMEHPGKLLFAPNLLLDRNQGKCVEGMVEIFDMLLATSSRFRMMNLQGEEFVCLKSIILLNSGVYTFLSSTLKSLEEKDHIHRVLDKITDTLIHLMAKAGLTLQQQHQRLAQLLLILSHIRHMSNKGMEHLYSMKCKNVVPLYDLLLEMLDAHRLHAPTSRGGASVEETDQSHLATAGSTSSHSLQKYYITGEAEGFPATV
Procedure, shortened: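 ER-α protein levels measured by in-cell western with SP1 antibody, ratioed to DRAQ5 DNA signal and given as percent of untreated controls. Compounds added at 0.3–0.000003 μM final (eleven semilog points) to adherent MCF-7 cells in stripped serum; exposure 4 or 24 h before fixation.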

MCF-7 cells = assay: Breast Cancer Cell Viability Assay (MCF-7, CellTiter-Glo); format: cell-based; conditions: 5 days' compound exposure; for IC50: Homo sapiens, MCF7, 120 h
Procedure, shortened: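 MCF-7 cells, 320 per well in RPMI with 10% FBS and 20 mM HEPES, adhered overnight, then exposed 5 days to an eleven-point semilog dilution (final 0.3-0.000003 μM). CellTiter-Glo luminescence read; % viability = (sample − cell-free background)/(untreated − background) × 100.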

SMILES | Emax (ER-α) | DC50 (ER-α) | IC50 (MCF-7 cells) | MCF7 Viability Assay Max Response (MCF-7 cells)
O=C(O)/C=C/c1ccc(/C(=C(/CCF)c2ccccc2)c2ccc3[nH]ncc3c2)cc1 [Compound 66, (E)-3-(4-((E)-4-Fluoro-1-(1H-indazol-5-yl)-2-phenylbut-1-en-1-yl)phenyl)acrylic acid] | ≥ 40% | ≤ 100 nM | ≤ 100 nM | ++ (++ = a single % value ≧ 40%)
O=C(O)/C=C/c1ccc(/C(=C(\c2ccccc2)C(F)(F)F)c2ccc3[nH]ncc3c2)cc1 [Compound 68, (E)-3-(4-((Z)-3,3,3-Trifluoro-1-(1H-indazol-5-yl)-2-phenylprop-1-en-1-yl)phenyl)acrylic acid] | ≥ 40% | ≤ 100 nM | ≤ 100 nM | ++ (++ = a single % value ≧ 40%)
Cc1cc(F)ccc1/C(=C(\c1ccc(/C=C/C(=O)O)cc1)c1ccc2[nH]ncc2c1F)C1CC1 [Compound 71, (E)-3-(4-((E)-2-Cyclopropyl-1-(4-fluoro-1H-indazol-5-yl)-2-(4-fluoro-2-methylphenyl)vinyl)phenyl)acrylic acid] | ≥ 40% | ≤ 100 nM | ≤ 100 nM | ++ (++ = a single % value ≧ 40%)
Cc1cc(Cl)ccc1/C(=C(\c1ccc(/C=C/C(=O)O)cc1)c1ccc2[nH]ncc2c1F)C1CC1 [Compound 72, (E)-3-(4-((E)-2-(4-Chloro-2-methylphenyl)-2-cyclopropyl-1-(4-fluoro-1H-indazol-5-yl)vinyl)phenyl)acrylic acid] | ≥ 40% | ≤ 100 nM | ≤ 100 nM | ++ (++ = a single % value ≧ 40%)
O=C(O)/C=C/c1ccc(/C(=C(\c2ccc(F)cc2Cl)C(F)F)c2ccc3[nH]ncc3c2)cc1 [Compound 74, (E)-3-(4-((Z)-2-(2-Chloro-4-fluorophenyl)-3,3-difluoro-1-(1H-indazol-5-yl)prop-1-en-1-yl)phenyl)acrylic acid] | ≥ 40% | ≤ 100 nM | ≤ 100 nM | ++ (++ = a single % value ≧ 40%)

The next lines start with results.

Emax (ER-α) | DC50 (ER-α) | IC50 (MCF-7 cells) | SMILES | MCF7 Viability Assay Max Response (MCF-7 cells)
≥ 40% | ≤ 100 nM | ≤ 100 nM | CC/C(=C(/c1ccc(/C=C/C(=O)O)cc1)c1cc(F)c2[nH]ncc2c1)c1ccc(F)cc1Cl [Compound 65, (E)-3-(4-((E)-2-(2-Chloro-4-fluorophenyl)-1-(7-fluoro-1H-indazol-5-yl)but-1-en-1-yl)phenyl)acrylic acid] | ++ (++ = a single % value ≧ 40%)
≥ 40% | ≤ 100 nM | ≤ 100 nM | O=C(O)/C=C/c1ccc(/C(=C(/CCCl)c2ccc(F)cc2Cl)c2ccc3[nH]ncc3c2)cc1 [Compound 67, (E)-3-(4-((E)-4-Chloro-2-(2-chloro-4-fluorophenyl)-1-(1H-indazol-5-yl)but-1-en-1-yl)phenyl)acrylic acid] | ++ (++ = a single % value ≧ 40%)
≥ 40% | ≤ 100 nM | ≤ 100 nM | CC/C(=C(/c1ccc(/C=C/C(=O)O)cc1)c1ccc2[nH]ncc2c1F)c1ccc(F)cc1C [Compound 69, (E)-3-(4-((E)-1-(4-Fluoro-1H-indazol-5-yl)-2-(4-fluoro-2-methylphenyl)but-1-en-1-yl)phenyl)acrylic acid] | ++ (++ = a single % value ≧ 40%)
≥ 40% | ≤ 100 nM | ≤ 100 nM | CC/C(=C(/c1ccc(/C=C/C(=O)O)cc1)c1ccc2[nH]ncc2c1F)c1ccc(Cl)cc1C [Compound 70, (E)-3-(4-((E)-2-(4-Chloro-2-methylphenyl)-1-(4-fluoro-1H-indazol-5-yl)but-1-en-1-yl)phenyl)acrylic acid] | ++ (++ = a single % value ≧ 40%)
≥ 40% | ≤ 100 nM | ≤ 100 nM | CC/C(=C(/c1ccc(/C=C/C(=O)O)cc1)c1ccc2[nH]ncc2c1Cl)c1ccc(F)cc1Cl [Compound 73, (E)-3-(4-((E)-1-(4-Chloro-1H-indazol-5-yl)-2-(2-chloro-4-fluorophenyl)but-1-en-1-yl)phenyl)acrylic acid] | ++ (++ = a single % value ≧ 40%)
